In patent publication US20180369230A1, “TARGETED SELECTION OF PATIENTS FOR TREATMENT WITH SPECIFIC CORTISTATIN DERIVATIVES” (President and Fellows of Harvard College, priority 2015, published 2018):
pIC50: −log10 of the molar value.

Tests used:
A498 = experiment: Soft agar growth assay; type: cell-based; details: A498, clear cell renal cell carcinoma, VHL negative, 100 nM
Description: (§1) For the 62 cell lines 96 well suspension cell culture plates were prepared. 100 μL of the soft agar bottom layer (0.6% final concentration in complete medium) was poured and left to solidify. 50 μL of the soft agar top layer (0.4% final concentration) containing the corresponding cells and cell number were then added on top, solidified and incubated at 37° C., 10% CO2. After the soft agar had solidified, the test items were added at indicated final concentrations into the inner wells of the plate. Subsequently, the assay was incubated in cell culture incubators for 8 to 14 days. Finally, the assay was developed using Alamar Blue and upon 1-5 h of incubation at 37° C. fluorescence intensity was determined (excitation: 560 nm; emission: 590 nm). As low control, cells were treated with 1E-05M Staurosporine (6fold values). As high control, cells were treated with 0.1% DMSO (solvent control, 6 fold values).
(§2) Raw data were converted into percent soft agar growth relative to high controls (solvent 0.1% DMSO) and low controls (1E-05M Staurosporine), which were set to 100% and 0%, respectively. The results are tabulated in FIGS. 15A, 15B, and 15C and Table 4 below.

Caki-2 = experiment: Soft agar growth assay; type: cell-based; details: Caki-2, clear cell renal cell carcinoma, VHL negative, 100 nM
Description: as §1, §2

HCC827 = experiment: Soft agar growth assay; type: cell-based; details: HCC827, Non small cell lung carcinoma, EGFR mutation, 100 nM
Description: as §1, §2

NCI-N87 = experiment: Soft agar growth assay; type: cell-based; details: NCI-N87, Gastric cancer, HER2 overexpression, 100 nM
Description: as §1, §2

RL95-2 = experiment: Soft agar growth assay; type: cell-based; details: RL95-2, Endometrial cancer, ER-alpha positive, 100 nM
Description: as §1, §2

SK-ES-1 = experiment: Soft agar growth assay; type: cell-based; details: SK-ES-1, Osteosarcoma, EWS-FLI1, 100 nM
Description: as §1, §2

SK-N-F1 = experiment: Soft agar growth assay; type: cell-based; details: SK-N-F1, Neuroblastoma, 100 nM
Description: as §1, §2

SK-N-MC = experiment: Soft agar growth assay; type: cell-based; details: Neuroblastoma, EWS-FLI1, 100 nM
Description: as §1, §2

SK-N-SH = experiment: Soft agar growth assay; type: cell-based; details: Neuroblastoma, 100 nM
Description: as §1, §2

SK.BR-3 = experiment: Soft agar growth assay; type: cell-based; details: SK.BR-3, Breast cancer, HER2 overexpression, 100 nM
Description: as §1, §2

T47D = experiment: Soft agar growth assay; type: cell-based; details: Breast cancer, ER-alpha positive, 100 nM
Description: as §1, §2

MOLM-14 cells = experiment: Gene expression, gene set enrichment analysis (GSEA); type: cell-based, human; details: MOLM-14, 3 h 25 nM
Description: (§3) Leukemia cells were plated (12-well) in triplicate at 500,000-800,000 cells per ml and incubated in the presence of vehicle (0.1% DMSO) or CA (25 nM 3 h for K562, MOLM-14 and MV4;11; 10 nM 24 h for MOLM-14; 25 nM 4 h for SET-2, n=3 for each cell line). Cells were then washed twice with cold PBS, and snap frozen. RNA was isolated (RNeasy Plus Microkit, Qiagen or TRIzol, Life Technologies), processed, and, for K562, MOLM-14 and MV4;11, hybridized to the Human U133 Plus 2.0 microarray (Affymetrix). Microarrays were processed with Bioconductor packages affyQCReport for quality control and affy for background correction, summarization, and normalization using rma. Probe sets present in at least 1 sample (based on affy mas5call) and for which the interquartile range was >log2(1.2) were retained for further analysis. The limma Bioconductor package was used for differential expression analysis of CA-treated versus DMSO control samples (Benjamini-Hochberg adjusted P<0.05). SET-2 and HCT 116 gene expression was measured by RNA-seq. SET-2 RNA-seq libraries were prepared and processed using the Ion Torrent workflow. Reads were aligned in two passes, first with rnaStar (v.2.3.0e) then with BWA (v.0.7.5a) for remaining unmapped reads, both using default parameters. Mapped reads were merged and counted using HTSeq (v.0.5.3p3) with -s yes -m intersection-strict. The Bioconductor package DESeq was used for DE analysis (FDR<0.05 and twofold change) and normalization. HCT116 cells were grown to approximately 80% confluence and were treated with either 100 nM CA or DMSO for 3 h (n=3). Cells were then washed twice with cold PBS and scraped into TRIzol reagent (Life Technologies). After collecting the RNA, it was further purified using an RNeasy mini kit (Qiagen) with an on-column DNase I digestion. Libraries for Illumina sequencing were generated via the Illumina TruSEQ stranded mRNA prep kit. Samples were run in a single lane on an Illumina HiSEQ 2000 sequencer with a single read flow cell using 1×50-bp reads and a 6-cycle index read. Reads were mapped to the hg19 reference genome using Tophat2 v.2.0.6 with custom settings including the setting of -library-type fr- firstrand to appropriately account for the stranded nature of the protocol. HTSeq v.0.6.1 was used to obtain read counts over annotated genes and differentially expressed genes were called by DESeq v.1.10.1 with a padj value of less than 0.01. Counts were normalized for GSEA using the limma voom function. Expression data for the I-BET151 comparison were downloaded from ArrayExpress (https://www.ebi.ac.uk/arrayexpress, accession E-MTAB-774) and processed files used as is. Gene lists were submitted to the DAVID web server (http://david.abcc.ncifcrf.gov) for functional annotation. GSEA version 2.09 was carried out using signal-to-noise on natural values as the metric. Signatures included curated gene sets (C2, v.3) downloaded from the Broad's MSigDB as well as signatures curated from in-house and published data sets.
(§4) The curated gene sets were analyzed together with over 4,000 signatures including the Broad Molecular Signatures database (C2).

SET-2 cells = experiment: as above; type: cell-based, human; details: SET-2, 4 h 25 nM
Description: as §3, §4

[1] = system: ruxolitnib persistence cells; experiment: Growth inhibition in ruxolitinib persistent cells; type: cell-based; details: FIG. 5 legend; read-out: G150 in ruxolitnib persistence cells
RUNX1 target genes = experiment: Determination of gene expression levels; type: cell-based, human; details: SET-2, MOLM-14 and MV4;11
Description: Leukemia cells were plated (12-well) in triplicate at 500,000-800,000 cells per ml and incubated in the presence of vehicle (0.1% DMSO) or CA (25 nM 3 h for K562, MOLM-14 and MV4;11; 10 nM 24 h for MOLM-14; 25 nM 4 h for SET-2, n=3 for each cell line). Cells were then washed twice with cold PBS, and snap frozen. RNA was isolated (RNeasy Plus Microkit, Qiagen or TRIzol, Life Technologies), processed, and, for K562, MOLM-14 and MV4;11, hybridized to the Human U133 Plus 2.0 microarray (Affymetrix). Microarrays were processed with Bioconductor packages affyQCReport for quality control and affy for background correction, summarization, and normalization using rma. […] SET-2 and HCT 116 gene expression was measured by RNA-seq. […] Reads were aligned in two passes, first with rnaStar (v.2.3.0e) then with BWA (v.0.7.5a) for remaining unmapped reads, both using default parameters. Mapped reads were merged and counted using HTSeq (v.0.5.3p3) with -s yes -m intersection-strict. […] Samples were run in a single lane on an Illumina HiSEQ 2000 sequencer with a single read flow cell using 1×50-bp reads and a 6-cycle index read. Reads were mapped to the hg19 reference genome using Tophat2 v.2.0.6 with custom settings including the setting of -library-type fr- firstrand to appropriately account for the stranded nature of the protocol. […]

In the case of Cortistatin A, the “% growth rel. to vehicle” value (A498) was 51%, the “% growth rel. to vehicle” value (Caki-2) was 18% and the “% growth rel. to vehicle” value (HCC827) was 23%. The “% growth rel. to vehicle” value (NCI-N87) was 26%, the “% growth rel. to vehicle” value (RL95-2) was 16% and the “% growth rel. to vehicle” value (SK-ES-1) was 36%. For the same substance, the “% growth rel. to vehicle” value (SK-N-F1) was 30%, the “% growth rel. to vehicle” value (SK-N-MC) was 45% and the “% growth rel. to vehicle” value (SK-N-SH) was 29%. The “% growth rel. to vehicle” value (SK.BR-3) was 22%, the “% growth rel. to vehicle” value (T47D) was 48% and the NES (MOLM-14 cells; signature: Downregulated by RUNX1-RUNX1T1 in CD34+ cord blook cells) was 2.50. The NES (MOLM-14 cells; signature: Downregulated by RUNX1 knowckdown in Jurkat cells) was 2.00, the NES (MOLM-14 cells; signature: Downregulated by RUNX1 knowckdown in Kasumi-1 cells) was 2.21 and the NES (MOLM-14 cells; signature: Upregulated by C/EBPα in Burkitt lymphoma cells) was 2.56. The NES (MOLM-14 cells; signature: Upregulated by C/EBPα in K562 cells) was 2.22, the NES (MOLM-14 cells; signature: Upregulated by C/EBPα in KCL22 cells) was 2.22 and the NES (MOLM-14 cells; signature: Upregulated by RUNX1-RUNX1T1 knockdown in Kasumi-1 cells) was 2.78. It also gave an NES (SET-2 cells; signature: GATA1/GATA2/RUNX1/FLI1/SCL Binding Sites in Mks) of 2.03, an NES (SET-2 cells; signature: GATA1/SCL Binding sites in Mks) of 2.27 and a pIC50 [1] of 8.00 to 8.70. For the same substance, the “expression of RUNX1 target genes including CEBPA, IRF8 and NFE2” value (RUNX1 target genes) was “upregulated”.
